{"source": "patent US10064922B2", "about": "“Compositions and methods for immune tolerance induction” (The Research Foundation for The State University of New York, priority 2011, dated 2018)", "test_system": "HA mice", "assay": "Antigen specificity: ovalbumin given concomitantly with FVIII or FVIII-PS/PC at a distant site", "type": "in vivo", "details": "ovalbumin concomitantly administered at a distant anatomical site; ±SEM", "text": "During the reverse vaccination strategy, it is desirable that the immunization should not interfere with the ability of the immune system to mount immune response against other antigens and pathogens. In order to investigate the antigen specificity and effect of immunization on the systemic immune suppression, another foreign antigen; ovalbumin (Ova) was concomitantly administered with either FVIII or FVIII-PS/PC complexes, but at a distant anatomical site.", "data": [{"substance": "Ova: ovalbumin, another foreign antigen given concomitantly at a distant anatomical site", "values": [{"measurement": "Anti-FVIII Nab titers", "result": "no anti-FVIII Nabs"}]}]}
